# According to the SangsterLogP compilation:
# Tests used:
# [1] = method code SF, from PMID: 8453740
# [2] = method code SF-W, from PMID: 8453740
logP [1],Compound,other results
2.57,CN(C)C(=O)c1cccc(Oc2ccccc2)c1,–
2.86,CNC(=O)c1cccc(Oc2ccccc2)c1,–
–,CCCCCCN(C)C(=O)c1cccc(Oc2ccccc2)c1,logP: 5.01
4.59,CCCCCCOc1cccc(-c2cn(C)cc(-c3ccccc3)c2=O)c1,–
2.98,CCCOc1cccc(-c2cn(C)cc(-c3ccccc3)c2=O)c1,–
3.89,CCCCN(C)C(=O)c1cccc(Oc2ccccc2)c1,–
–,CNc1cnn(-c2cccc(C(F)(F)F)c2)c(=O)c1Cl,logP [2]: 2.52
–,CCCCCCOc1cccc(-c2cn(C)cc(-c3ccc(Cl)cc3)c2=O)c1,logP: 5.23
3.76,CNC(=O)c1cccc(Oc2cc(C)ccc2C)c1,–
4.07,CCCCCOc1cccc(-c2cn(C)cc(-c3ccccc3)c2=O)c1,–
4.43,CCCCCN(C)C(=O)c1cccc(Oc2ccccc2)c1,–
2.98,CCN(C)C(=O)c1cccc(Oc2ccccc2)c1,–
1.07,CN(C)C=C1OC(=O)C(C#N)=C1c1ccccc1,–
3.44,CCCN(C)C(=O)c1cccc(Oc2ccccc2)c1,–
4.35,Cc1ccc(C)c(Oc2cccc(C(=O)NC(C)C)c2)c1,–
4.78,Cc1ccc(C)c(Oc2cccc(C(=O)NC(C)(C)C)c2)c1,–
1.94,COc1cccc(-c2cn(C)cc(-c3ccccc3)c2=O)c1,–

Compound,logP [1],other results
CNC1=C(c2cccc(C(F)(F)F)c2)C(=O)C(c2ccccc2)O1 (stereo not drawn),3.22,–
